Results on 87 compounds are retold here after ChEMBL document CHEMBL1151935, “Improvement of pharmacological properties of irreversible thyroid receptor coactivator binding inhibitors” (J Med Chem, 2009).

Bounds are passed on as bounds.

The nature of this data set: in vitro. The settings on record: PAMPA, pH 7.4.
`CCCCCCS(=O)(=O)c1cc(Cl)c(C(=O)CCN(C)C)cc1Cl` registered an apparent permeability (Papp) of 90 ×10⁻⁶ cm/s.

`CCCCCCOc1ccc(C(=O)CCN(C)C)cc1Br`: the Papp is 460 ×10⁻⁶ cm/s.

As to `CCCCCCS(=O)(=O)c1cc(Cl)c(C(=O)CCN2CCN(C(C)=O)CC2)cc1Cl`, the apparent permeability coefficient (Papp) stood at 670 ×10⁻⁶ cm/s.

Consider `CCCCCCOc1c(C)cc(C(=O)CCN(C)C)cc1C`, for which the Papp came out at 730 ×10⁻⁶ cm/s.

For `CCCCCCSc1cc(Cl)c(C(=O)CCN2CC2C)cc1Cl` (configuration not stated), the apparent permeability coefficient (Papp) was found to be 140 ×10⁻⁶ cm/s.

Turning to `CCCCCCSc1ccc(C(=O)CCN(C)C)c(Cl)c1Cl`, the Papp came out at 140 ×10⁻⁶ cm/s.

`CCCCCCS(=O)(=O)c1cc(Cl)c(C(=O)CCN2CCN(C(C)=O)CC2)c(Cl)c1` had a Papp of 480 ×10⁻⁶ cm/s. This Papp lies about 3.4-fold higher than the previous one.

As to `CCCCCCOc1ccc(C(=O)CCN2CCOCC2)c(Cl)c1Cl`, the Papp was 930 ×10⁻⁶ cm/s.

`CCCCCCOc1ccc(C(=O)CCN(C)C)c(N(C)C)c1` had a Papp of 170 ×10⁻⁶ cm/s. This Papp lies about 5.5-fold lower than the previous one.

Compound `CCCCCCSc1ccc(C(=O)CCN2CCOCC2)c(Cl)c1Cl` had a Papp of 170 ×10⁻⁶ cm/s.

In turn, `CCCCCCOc1cccc(C(=O)CCN(C)C)c1` yielded a Papp of 830 ×10⁻⁶ cm/s.

Compound `CCCCCCS(=O)(=O)c1ccc(C(=O)CCN2CC2C)c(Cl)c1Cl` (configuration not stated) returned a Papp of 440 ×10⁻⁶ cm/s.

`CCCCCCOc1ccc(C(=O)CCN(C)C)cc1Cc1ccccc1`: the Papp is 230 ×10⁻⁶ cm/s.

The compound `CCCCCCSc1cc(Cl)c(C(=O)CCN2CCNC(=O)C2)cc1Cl` registered an apparent permeability coefficient (Papp) of 810 ×10⁻⁶ cm/s.

For `CCCCCCS(=O)(=O)c1cc(Cl)c(C(=O)CCN(C)C)c(Cl)c1`, the apparent permeability (Papp) was 170 ×10⁻⁶ cm/s.

`CCCCCCS(=O)(=O)c1cc(C)c(C(=O)CCN2CCN(C(C)=O)CC2)c(C)c1` showed a Papp of 470 ×10⁻⁶ cm/s.

The compound `CCCCCCOc1cc(Cl)c(C(=O)CCN2CC2C)c(Cl)c1` (configuration not stated) came in with a Papp of more than 1 ×10⁻⁶ cm/s.

The compound `CCCCCCSc1cc(Cl)c(C(=O)CCN2CCN(S(=O)(=O)CC)CC2)cc1Cl` gave a Papp of 20 ×10⁻⁶ cm/s.

With `CCCCCCOc1ccc(C(=O)CCN2CCN(S(=O)(=O)CC)CC2)c(Cl)c1Cl`, the Papp is more than 1 ×10⁻⁶ cm/s.

As for `CCCCCCOc1cc(Cl)c(C(=O)CCN2CC2C)cc1Cl` (configuration not stated), the Papp stood at 810 ×10⁻⁶ cm/s.

The compound `CCCCCCS(=O)(=O)c1cc(Cl)c(C(=O)CCN2CCNC(=O)C2)cc1Cl` displayed a Papp of 540 ×10⁻⁶ cm/s. Against the preceding compound, the Papp is about 1.5-fold lower.

Regarding `CCCCCCOc1cc(Cl)c(C(=O)CCN2CCN(S(=O)(=O)CC)CC2)c(Cl)c1`, the Papp was 860 ×10⁻⁶ cm/s.

The compound `CCCCCCSc1cc(Cl)c(C(=O)CCN(C)C)cc1Cl` gave a Papp of 330 ×10⁻⁶ cm/s.

Turning to `CCCCCS(=O)(=O)Nc1ccc(C(=O)CCN(C)C)cc1`, the apparent permeability (Papp) came to 50 ×10⁻⁶ cm/s.

In turn, `CCCCCCOc1cc(C)c(C(=O)CCN2CC2C)c(C)c1` (configuration not stated) registered an apparent permeability (Papp) of 930 ×10⁻⁶ cm/s.

The compound `CCCCCCOc1ccc(C(=O)CCN(C)C)cc1OC` displayed a Papp of 950 ×10⁻⁶ cm/s. The Papp values of the last two compounds are within 1.5-fold of each other.

`CCCCCCOc1ccc2c(c1)OCC(CN(C)C)C2=O` (configuration not stated): the apparent permeability coefficient (Papp) worked out at 700 ×10⁻⁶ cm/s.

As to `CCCCCCSc1cc(C)c(C(=O)CCN2CC2C)c(C)c1` (configuration not stated), the apparent permeability (Papp) was 770 ×10⁻⁶ cm/s.

In turn, `CCCCCCSc1ccc(C(=O)CCN2CC2C)c(Cl)c1` (configuration not stated) returned a Papp of 500 ×10⁻⁶ cm/s.

In turn, `CCCCCCOc1ccc(C(=O)CCN(C)C)c(Br)c1` displayed a Papp of 80 ×10⁻⁶ cm/s.

As for `CCCCCCOc1ccc(C(=O)CCN(C)C)cc1-c1ccccc1`, the apparent permeability coefficient (Papp) was found to be 830 ×10⁻⁶ cm/s.

For the compound `CCCCCCS(=O)(=O)c1cc(Cl)c(C(=O)CCN2CCOCC2)cc1Cl`, the Papp turned out to be 680 ×10⁻⁶ cm/s.

Compound `CCCCCCS(=O)(=O)c1ccc(C(=O)CCN2CCN(S(=O)(=O)CC)CC2)c(Cl)c1Cl` returned a Papp of 380 ×10⁻⁶ cm/s.

As to `CCCCCCOc1ccc(C(=O)CCN(C)C)cc1F`, the Papp was found to be 700 ×10⁻⁶ cm/s. Compared with the last compound, the Papp is about 1.8-fold higher.

`CCCCCCS(=O)(=O)c1cc(Cl)c(C(=O)CCN2CCN(S(=O)(=O)CC)CC2)cc1Cl` gave a Papp of 730 ×10⁻⁶ cm/s.

In the case of `CCCCCCS(=O)(=O)c1cc(C)c(C(=O)CCN2CCNC(=O)C2)c(C)c1`, the Papp is 480 ×10⁻⁶ cm/s.

Turning to `CCCCCCSc1ccc(C(=O)CCN2CCN(S(=O)(=O)CC)CC2)c(Cl)c1`, the Papp was 740 ×10⁻⁶ cm/s.

`CCCCCCOc1ccc(C(=O)CCN(C)C)cc1S(C)(=O)=O`: the apparent permeability (Papp) was found to be 730 ×10⁻⁶ cm/s.

Regarding `CCCCCCOc1cc(C)c(C(=O)CCN(C)C)c(C)c1`, the apparent permeability coefficient (Papp) is 650 ×10⁻⁶ cm/s.

On to `CCCCCCOc1ccc2c(c1)CC(CN(C)C)C2=O` (configuration not stated), for which the Papp was determined as 230 ×10⁻⁶ cm/s.

The compound `CCCCCCOc1ccc(C(=O)CCN(C)C)cc1C(F)(F)F` registered an apparent permeability (Papp) of 930 ×10⁻⁶ cm/s.

For the compound `CCCCCCS(=O)(=O)c1ccc(C(=O)CCN2CCNC(=O)C2)c(Cl)c1`, the apparent permeability (Papp) came to 240 ×10⁻⁶ cm/s.

Take `CCCCCCS(=O)(=O)c1ccc(C(=O)CCN(C)C)cc1`: the Papp amounted to 780 ×10⁻⁶ cm/s. Against the preceding compound, the Papp is about 3.2-fold higher.

In the case of `CCCCCCOc1cc(Cl)c(C(=O)CCN2CCOCC2)c(Cl)c1`, the Papp was more than 1 ×10⁻⁶ cm/s.

Turning to `CCCCCCS(=O)(=O)c1ccc(C(=O)CCN2CCN(C(C)=O)CC2)c(Cl)c1Cl`, the Papp was 770 ×10⁻⁶ cm/s.

In the case of `CCCCCCOc1ccc(-c2ccc(C(=O)CCN(C)C)cc2)cc1`, the Papp was 150 ×10⁻⁶ cm/s.

In the case of `CCCN1CCN(c2ccc(C(=O)CCN(C)C)cc2)CC1`, the apparent permeability coefficient (Papp) is 320 ×10⁻⁶ cm/s.

For the compound `CCCCCCS(=O)(=O)c1cc(Cl)c(C(=O)CCN2CCNC(=O)C2)c(Cl)c1`, the apparent permeability coefficient (Papp) was found to be 430 ×10⁻⁶ cm/s.

`CCCCCCSc1ccc(C(=O)CCN(C)C)c(Cl)c1` displayed an apparent permeability (Papp) of 610 ×10⁻⁶ cm/s.

Compound `CCCCCCS(=O)(=O)c1cc(Cl)c(C(=O)CCN2CC2C)cc1Cl` (configuration not stated) gave a Papp of 260 ×10⁻⁶ cm/s.

Turning to `CCCCCCOc1ccc(C(=O)CCN(C)C)c(C)c1`, the Papp turned out to be 750 ×10⁻⁶ cm/s.

`CCCCCCOc1ccc(C(=O)CCN(C)C)cc1I`: the Papp turned out to be 540 ×10⁻⁶ cm/s.

Compound `CCCCCCOc1ccc(C(=O)CCNc2cccc(Cl)c2)cc1` yielded a Papp of 2 ×10⁻⁶ cm/s.

Turning to `CCCCCCS(=O)(=O)c1cc(Cl)c(C(=O)CCN2CC2C)c(Cl)c1` (configuration not stated), the Papp stood at 980 ×10⁻⁶ cm/s.

For the compound `CCCCCCS(=O)(=O)c1ccc(C(=O)CCN2CCN(S(=O)(=O)CC)CC2)c(Cl)c1`, the Papp was found to be 300 ×10⁻⁶ cm/s. Against the preceding compound, the Papp is about 3.3-fold lower.

The compound `CCCCCCOc1ccc2c(c1)CCC(CN(C)C)C2=O` (configuration not stated) displayed a Papp of 710 ×10⁻⁶ cm/s. This Papp is about 2.4-fold higher than that of the compound before.

On to `CCCCCCOc1ccc(C(=O)C(CN(C)C)c2ccccc2)cc1` (configuration not stated), for which the apparent permeability coefficient (Papp) was 910 ×10⁻⁶ cm/s.

In turn, `CCCCCCOc1ccc(C(=O)CCN(C)C)c(C(F)(F)F)c1` returned a Papp of 500 ×10⁻⁶ cm/s. Compared with the last compound, the Papp is about 1.8-fold lower.

As to `CCCCCCOc1ccc(C(=O)CCN(CCCC)CCCC)cc1`, the Papp was determined as 560 ×10⁻⁶ cm/s.

`CCCCCCS(=O)(=O)c1ccc(C(=O)CCN(C)C)c(Cl)c1` gave a Papp of 380 ×10⁻⁶ cm/s.

Take `CCCCCCOc1ccc(C(=O)CCN(C)C)c(I)c1`: the apparent permeability (Papp) came out at 270 ×10⁻⁶ cm/s. The Papp values of the last two compounds are within 1.5-fold of each other.

The compound `CCCCCCSc1cc(Cl)c(C(=O)CCN2CCN(S(=O)(=O)CC)CC2)c(Cl)c1` displayed a Papp of 50 ×10⁻⁶ cm/s.

As to `CCCCCCSc1cc(Cl)c(C(=O)CCN2CC2C)c(Cl)c1` (configuration not stated), the Papp was 190 ×10⁻⁶ cm/s. Compared with the last compound, the Papp is about 3.8-fold higher.

As to `CCCCCCOc1cc(C(C)C)c(C(=O)CCN(C)C)cc1C`, the apparent permeability (Papp) stood at 860 ×10⁻⁶ cm/s.

`CCCCCCSc1cc(C)c(C(=O)CCN2CCN(S(=O)(=O)CC)CC2)c(C)c1`: the Papp amounted to 160 ×10⁻⁶ cm/s. Compared with the last compound, the Papp is about 5.4-fold lower.

With `CCCCNC(=O)Nc1ccc(C(=O)CCN(C)C)cc1`, the apparent permeability (Papp) was determined as 10 ×10⁻⁶ cm/s.

In the case of `CCCCCCSc1ccc(C(=O)CCN2CCN(S(=O)(=O)CC)CC2)c(Cl)c1Cl`, the Papp worked out at 30 ×10⁻⁶ cm/s.

`CCCCCCOc1ccc(C(=O)CCNc2ccccc2)cc1`: the Papp is 0.2 ×10⁻⁶ cm/s. Compared with the last compound, the Papp is about 150-fold lower.

`CCN1CCC(Cc2ccc(C(=O)CCN(C)C)cc2)CC1` yielded a Papp of 140 ×10⁻⁶ cm/s.

Regarding `CCCCCCNC(=O)c1ccc(C(=O)CCN(C)C)cc1`, the apparent permeability (Papp) was determined as 770 ×10⁻⁶ cm/s.

`CCCCCCS(=O)(=O)c1ccc(C(=O)CCN2CCOCC2)c(Cl)c1` returned an apparent permeability (Papp) of 760 ×10⁻⁶ cm/s.

In turn, `CCCCCCSc1cc(Cl)c(C(=O)CCN(C)C)c(Cl)c1` showed a Papp of 350 ×10⁻⁶ cm/s.

Compound `CCCCCCOc1ccc(C(=O)CCN(C)C)cc1C(C)(C)C` displayed an apparent permeability (Papp) of 190 ×10⁻⁶ cm/s. Compared with the last compound, the Papp is about 1.8-fold lower.

Regarding `CCCCCC(=O)Nc1ccc(C(=O)CCN(C)C)cc1`, the Papp was 560 ×10⁻⁶ cm/s.

As to `CCCCCCOc1ccc(C(=O)CCN2CC2C)c(Cl)c1Cl` (configuration not stated), the apparent permeability (Papp) is 370 ×10⁻⁶ cm/s.

`CCCCCCSc1ccc(C(=O)CCN2CC2C)c(Cl)c1Cl` (configuration not stated) showed an apparent permeability coefficient (Papp) of 70 ×10⁻⁶ cm/s.

Compound `CCCCCCS(=O)(=O)c1ccc(C(=O)CCN2CC2C)c(Cl)c1` (configuration not stated) gave an apparent permeability (Papp) of 160 ×10⁻⁶ cm/s.

Consider `CCCCCCOc1ccc(C(=O)CCN(C)C)c(S(C)(=O)=O)c1`, for which the Papp worked out at 850 ×10⁻⁶ cm/s. Against the preceding compound, the Papp is about 5.3-fold higher.

For the compound `CCCCCCOc1cc(Cl)c(C(=O)CCN(C)C)c(Cl)c1`, the apparent permeability coefficient (Papp) was 700 ×10⁻⁶ cm/s. The Papp values of the last two compounds are within 1.5-fold of each other.

Compound `CCCCCCS(=O)(=O)c1ccc(C(=O)CCN(C)C)c(Cl)c1Cl` returned a Papp of 220 ×10⁻⁶ cm/s.

In turn, `CCCCCCS(=O)(=O)c1ccc(C(=O)CCN2CCN(C(C)=O)CC2)c(Cl)c1` had a Papp of 360 ×10⁻⁶ cm/s. This Papp is about 1.6-fold higher than that of the compound before.

Consider `CCCCCCS(=O)(=O)c1ccc(C(=O)CCN2CCOCC2)c(Cl)c1Cl`, for which the Papp was 560 ×10⁻⁶ cm/s.

As to `CCCCCCOc1ccc(C(=O)CCN(C)C)c2ccccc12`, the Papp stood at 660 ×10⁻⁶ cm/s.

`CCCCCCS(=O)(=O)c1cc(Cl)c(C(=O)CCN2CCOCC2)c(Cl)c1` showed a Papp of 470 ×10⁻⁶ cm/s. The Papp values of the last two compounds are within 1.5-fold of each other.

Take `CCOCCOc1ccc(C(=O)CCN(C)C)cc1`: the Papp was 160 ×10⁻⁶ cm/s.

Regarding `CCCCCCOc1ccc(C(=O)CCN2CC2C)c(Cl)c1` (configuration not stated), the apparent permeability (Papp) is 870 ×10⁻⁶ cm/s.

`CCCCCCSc1cc(Cl)c(C(=O)CCN2CCOCC2)c(Cl)c1` gave a Papp of 10 ×10⁻⁶ cm/s. Compared with the last compound, the Papp is about 87-fold lower.
